ChEMBL document CHEMBL1201862, “PubChem BioAssay data set” (2004)
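Cells were grown in 96-well plates and exposed to each compound for 48 hours at five concentrations; endpoints were interpolated linearly between bracketing concentrations, or set to the highest concentration if not reached. At the GI50, growth is halved.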 Active and inactive are the calls of the source. Cut-off read from the data, not from the text of the source: active = GI50 up to about 1.1 µM and inactive = higher.

What was measured:
Assay in all cases: DTP human tumour cell line panel, 48 h
[1] = system: SN12C
[2] = system: RPMI-8226
[3] = system: SK-MEL-5
[4] = system: RXF 393
[5] = system: SR
[6] = system: M14
[7] = system: CCRF-CEM
[8] = system: NCI-H522
[9] = system: HCT-15
[10] = system: SK-MEL-28
[11] = system: K562
[12] = system: SF-295
[13] = system: HT-29
[14] = system: LOX IMVI
[15] = system: A498
[16] = system: NCI-H226
[17] = system: NCI-H23
[18] = system: SNB-75

Compound | GI50 [1] | GI50 [2] | GI50 [3] | GI50 [4] | GI50 [5] | GI50 [6] | GI50 [7] | GI50 [8] | GI50 [9] [µM] | GI50 [10] | GI50 [11] | GI50 [12] | GI50 [13] | GI50 [14] | GI50 [15] | GI50 [16] | GI50 [17] | GI50 [18]
CC(=O)OC1COC(N2CCc3ccccc32)C(OC(C)=O)C1OC(C)=O (centres undefined) | > 100 µM (inactive) | > 100 µM (inactive) | > 100 µM (inactive) | > 100 µM (inactive) | > 100 µM (inactive) | > 100 µM (inactive) | > 100 µM (inactive) | > 100 µM (inactive) | > 100 | > 100 µM (inactive) | > 100 µM (inactive) | > 100 µM (inactive) | > 100 µM (inactive) | > 100 µM (inactive) | > 100 µM (inactive) | > 100 µM (inactive) | > 100 µM (inactive) | –
CN1C(=S)CSc2ccccc21 | > 100 µM (inactive) | 89.7 µM (inactive) | 97.1 µM (inactive) | > 100 µM (inactive) | > 100 µM (inactive) | > 100 µM (inactive) | > 100 µM (inactive) | > 100 µM (inactive) | > 100 | > 100 µM (inactive) | > 100 µM (inactive) | – | > 100 µM (inactive) | > 100 µM (inactive) | – | 89.1 µM (inactive) | > 100 µM (inactive) | 42.9 µM (inactive)
O=C1N=CN=C2C=CC(Cl)=C(I)C12 (centres undefined) | > 100 µM (inactive) | 56.2 µM (inactive) | 98.2 µM (inactive) | 23.3 µM (inactive) | 91.8 µM (inactive) | > 100 µM (inactive) | > 100 µM (inactive) | – | – | > 100 µM (inactive) | > 100 µM (inactive) | > 100 µM (inactive) | > 100 µM (inactive) | 56.1 µM (inactive) | 85.3 µM (inactive) | – | 46.2 µM (inactive) | –
O=C1CN=C(C[N+](=O)[O-])c2ccccc21 | > 100 µM (inactive) | > 100 µM (inactive) | > 100 µM (inactive) | – | > 100 µM (inactive) | > 100 µM (inactive) | – | > 100 µM (inactive) | > 100 | > 100 µM (inactive) | > 100 µM (inactive) | > 100 µM (inactive) | > 100 µM (inactive) | – | > 100 µM (inactive) | > 100 µM (inactive) | > 100 µM (inactive) | > 100 µM (inactive)
O=C(CC1C(=O)Nc2ccccc2[S+]1[O-])Nc1ccccc1 (centres undefined) | > 100 µM (inactive) | – | > 100 µM (inactive) | 19.8 µM (inactive) | 17.2 µM (inactive) | > 100 µM (inactive) | > 100 µM (inactive) | > 100 µM (inactive) | > 100 | > 100 µM (inactive) | – | > 100 µM (inactive) | > 100 µM (inactive) | – | > 100 µM (inactive) | > 100 µM (inactive) | > 100 µM (inactive) | 29.6 µM (inactive)
Oc1cc(-c2ccccn2)nc2cc(F)ccc12 | > 100 µM (inactive) | 92.3 µM (inactive) | 45.1 µM (inactive) | > 100 µM (inactive) | 18.9 µM (inactive) | 81.1 µM (inactive) | – | 25.8 µM (inactive) | – | > 100 µM (inactive) | 44.9 µM (inactive) | > 100 µM (inactive) | 49.1 µM (inactive) | 71 µM (inactive) | – | > 100 µM (inactive) | > 100 µM (inactive) | 26.5 µM (inactive)
O=C(Cc1nc2ccccc2s1)C(=O)Nc1cccc(C(F)(F)F)c1 | > 100 µM (inactive) | – | > 100 µM (inactive) | > 100 µM (inactive) | > 100 µM (inactive) | > 100 µM (inactive) | > 100 µM (inactive) | > 100 µM (inactive) | > 100 | > 100 µM (inactive) | – | > 100 µM (inactive) | > 100 µM (inactive) | – | > 100 µM (inactive) | > 100 µM (inactive) | > 100 µM (inactive) | > 100 µM (inactive)
O=C1C(Cl)C(c2ccccc2Cl)N1n1cnc2ccccc2c1=O (centres undefined) | > 100 µM (inactive) | 35 µM (inactive) | > 100 µM (inactive) | 17.5 µM (inactive) | 5.13 µM (inactive) | 94 µM (inactive) | 45.8 µM (inactive) | 25.8 µM (inactive) | 72.6 | > 100 µM (inactive) | 18.7 µM (inactive) | 29.4 µM (inactive) | > 100 µM (inactive) | 19.6 µM (inactive) | – | 8.32 µM (inactive) | 49.1 µM (inactive) | 20.2 µM (inactive)
COC(=O)[C@]1(C)CCC[C@@]2(C)C1CCC1=CC3(C(C)C)CCC12OO3 (some centres undefined) | 43.2 µM (inactive) | 43.1 µM (inactive) | 31.1 µM (inactive) | – | 27.9 µM (inactive) | 74 µM (inactive) | 31.2 µM (inactive) | 40.5 µM (inactive) | 40 | – | 27.7 µM (inactive) | 46.5 µM (inactive) | 34.4 µM (inactive) | 81.1 µM (inactive) | 18.7 µM (inactive) | 43.7 µM (inactive) | 77.1 µM (inactive) | –
